Assay results reported in paper PMC11249012 (Journal of Medicinal Chemistry, 2024).

Tests used:
[1] = system: hyperacetylation of tubulin, H3K9 and H3K27; assay: Western blot of tubulin and histone H3 hyperacetylation in 4T1 cells; format: cell-based, mouse; conditions: hybrids 10 μM, 6 h
Protocol: The potential for compounds as HDACi’s can be rapidly tested in cells in culture by monitoring the hyperacetylation of histone H3 and tubulin. H3 acetylation is controlled by multiple class I enzymes, and the class IIb enzyme HDAC6 regulates tubulin acetylation.[36]−[39] […] (Figure 4A).
Figure 4 Evidence for HDAC inhibition in 4T1 and 4TO7 TNBC cells. Western blots and quantification of triplicate biological replicates analyzing the effects of 1,25D (100 nM), SAHA (100 nM), and hybrids (10 μM) on hyperacetylation of tubulin (A,D), H3K9 (B,E), and H3K27 (C,F) in 4T1 (A–C) and 4TO7 cells (D–F).
After 6 h treatments, 4T1, 4T07, or B16-F10 cells were solubilized in lysis buffer (20 mM Tris, pH 8, 150 mM NaCl, 1% Triton X-100, 3.5 mM SDS, and 13 mM deoxycholic acid), and proteins were separated on a 4–15% Tris/glycine/SDS gel (Bio-Rad). Then, the proteins were transferred to a nitrocellulose membrane, followed by blocking in 5% skim milk in Tris-buffered saline (TBS, 1×) solution. After blocking, the membranes were incubated overnight at 4 °C with the primary antibodies against acetylated tubulin (Sigma-Aldrich—#T7451), tubulin (Sigma-Aldrich—#T9026), acetyl-histone H3(Lys9) (Merck Millipore—#07-352), acetyl-histone H3 (Lys27) (Abcam—#ab4729), total histone H3 (Cell Signaling Technology (CST)—#3638), and GAPDH (Abcam—#ab8245). Then, the membranes were incubated with antimouse (CST—#7076) or antirabbit (CST—#7074) IgG HRP-linked secondary antibodies at recommended concentrations. Finally, signals were detected using Clarity ECL substrates (Bio-Rad) and a ChemiDoc Imaging System. Changes in protein levels were quantified relative to control using Image Lab software (version 6.0.1) after normalization to GAPDH. Western blot experiments were carried out three times.

B16-F10 tumors = assay: B16-F10 melanoma model in vivo; set-up: species or system mouse; conditions: 2 doses of 5 mg/kg 24 h apart; also VDR gene; duplicate tumors from two animals
Protocol: We were then interested in comparing the efficacy of ZG compounds and other hybrids in tumor models in vivo. We focused initially on the B16-F10 melanoma which is syngeneic with C57BL/6 mice. The efficacy of ZG-126 in vivo in this model was tested in two experiments. […] In a second experiment, we compared the antitumor efficacy of hybrids at ∼0.5 MTD doses. […] All treatments were well tolerated, and body weights were unaffected (Figure 6C).
Finally, mice were sacrificed, and lungs of 4T1-bearing mice were removed to evaluate the efficiency of treatments on lung metastases.

in vivo = conditions: BALB/c, mouse, ip
[2] = system: macrophage infiltration into 4T1 tumors; assay: Immunofluorescence of macrophages in 4T1 tumors (F4/80, Arg1); format: in vivo, mouse
Protocol: Inhibition of PD-L1 and CD80/CD86 is directly achieved through the immune checkpoint blockade of their receptors using anti-CTLA-4 and anti-PD-1 antibodies.[69],[70]
Primary tumor tissues were fixed using 4% paraformaldehyde and subsequently dehydrated in sucrose solutions ranging from 10 to 30% for approximately 24 h each. The tissues were then embedded in base molds (Fisherbrand—#22363553) containing an optimal cutting temperature (OCT) compound (Fisher Healthcare—#4585). The tissue blocks were placed immediately on dry ice until the OCT compound solidified, and then they were stored at −80 °C. Prior to IF staining, sections of 5–10 μm were obtained using a Leica CM3050 S cryostat and SuperFrost Plus slides (Fisherbrand—#1255015). The tumor sections were then incubated with blocking buffer [phosphate-buffered saline containing 2% bovine serum albumin, 0.3% Triton X-100, 1% FBS, and 10% goat serum] for 1 h at RT. To detect macrophages in the TME, the sections were incubated with a pan-macrophage rat monoclonal antibody F4/80 (Abcam—#6640) diluted in blocking buffer overnight at 4 °C. Sixteen hours later, tissues were washed 3 times with 100 mM Tris–HCl and then incubated with a secondary goat antirat antibody (Invitrogen—#A11081) for 1 h at RT. […] Subsequently, 4′,6-diamidino-2-phenylindole (DAPI; Invitrogen—#D3571) was used to counterstain the nuclei for 5 min at RT. Finally, the slides were mounted using Fluoromount-G medium (Invitrogen—#00495802) and coverslips (Fisher Scientific—#12545E) and imaged with a Zeiss LSM 710 confocal microscope with ×20 objective. Quantification was carried out by QuPath software (version 0.3.2). F4/80+ macrophages and F4/80+ Arg1+ M2 macrophages were classified based on their fluorescence signal.

For CCC(CC)(c1ccc(C(=O)NCCCCC(=O)NO)cc1)c1ccc(OCC(O)C(C)(C)C)c(C)n1 (centres unmarked) [ZG-126, 4-(3-(5-(2-Hydroxy-3,3-dimethylbutoxy)-6-methylpyridin-2-yl)pentan-3-yl)-N-(5-(hydroxyamino)-5-oxopentyl)benzamide], the “histone H3 hyperacetylation at lysine 9 and 27 (H3K9 and H3K27)” value [1] was “comparable or superior to AM-193”, the tubulin acetylation ([1]; SAHA 100 nM) was “by far the most efficacious” and the “Cyp24a1 induction in B16-F10 tumors” value (B16-F10 tumors) was “robust induction of Cyp24a1”. For the same compound, the MTD (in vivo) was 10 mg/kg, the “reduction of the proportion of M2-polarized immunosuppressive macrophages” value ([2]; 4T1 tumors) was 2 fold and the “total macrophage infiltration into 4T1 tumors (F4/80 staining)” value ([2]; Figure 8B) was “significantly reduced”. For the same compound, the “percentage of anti-inflammatory M2 macrophages (Arg1 staining)” value ([2]; Figure 8C-E) was “most efficacious at reducing the percentage of anti-inflammatory M2 macrophages” and the “reduction of total macrophage infiltration” value ([2]; TNBC (4T1) tumors) was 2 fold.
